This passage reports IC50 results from patent publication US9145375B2, “Quinazolinone compounds” (PRANA BIOTECHNOLOGY LIMITED, priority 2008, dated 2015).

Broadly, the IC50 is the midpoint of a concentration-inhibition curve.

Format in all cases: in vitro ADME
For assay [1], the target named is CYP3A4 (Homo sapiens, UniProt P08684). In words: CYP450 isoform inhibition, recombinant enzymes, analysis by LCMS: CYP3A4. Details: purchased. Here is the method: (§1) CYP450 Isoform Inhibition
(§2) Microsomes containing individual recombinant human CYP450 enzymes (Supersomes™) were incubated in the presence of a fixed concentration of a probe substrate that forms a fluorescent metabolite upon CYP450-mediated metabolism.
(§3) A known inhibitor of each CYP450 isoform was included in each assay as a positive control and its IC50 was compared to literature values for acceptance of the assay.
(§4) The inherent fluorescence of the test compound was examined under the specific assay conditions for each isoform before and after the fluorometric assay to identify any compound-specific interference due to the parent compound or metabolic products. If the background fluorescence in these samples increased due to compound-specific interference, then the CYP450 inhibition samples were quantified using LC/MS assay.

The target of assay [2] is T1, CYP2C19 (Homo sapiens, UniProt P33261).
T1 construct: using a specific substrate approach in human liver microsomes; from tissue; host or cells: human liver microsomes
T1 sequence (P33261 whole entry): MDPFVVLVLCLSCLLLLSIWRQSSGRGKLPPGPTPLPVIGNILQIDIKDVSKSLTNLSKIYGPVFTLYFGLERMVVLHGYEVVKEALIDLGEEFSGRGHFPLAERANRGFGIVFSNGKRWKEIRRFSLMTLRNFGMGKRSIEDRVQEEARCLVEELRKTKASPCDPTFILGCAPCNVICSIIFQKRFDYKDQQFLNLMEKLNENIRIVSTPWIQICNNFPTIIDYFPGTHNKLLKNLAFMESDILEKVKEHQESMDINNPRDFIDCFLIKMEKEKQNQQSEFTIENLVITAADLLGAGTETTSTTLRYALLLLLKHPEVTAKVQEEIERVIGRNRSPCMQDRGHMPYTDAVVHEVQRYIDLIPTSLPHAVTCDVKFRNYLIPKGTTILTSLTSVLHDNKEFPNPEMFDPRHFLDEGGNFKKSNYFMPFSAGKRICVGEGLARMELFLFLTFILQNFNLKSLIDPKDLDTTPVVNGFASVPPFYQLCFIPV
In words: CYP450 isoform inhibition, recombinant enzymes, analysis by LCMS: CYP2C19. Here is the method:
as §1, §2, §3, §4

Assay [3] concerns the target T2, CYP2C9 (Homo sapiens, UniProt P11712).
T2 construct: using a specific substrate approach in human liver microsomes; from tissue; host or cells: human liver microsomes
Description: CYP450 isoform inhibition, recombinant enzymes, analysis by LCMS: CYP2C9. The procedure:
as §1, §2, §3, §4

The target in assay [4] is T3, CYP1A2 (Homo sapiens, UniProt P05177).
T3 construct: using a specific substrate approach in human liver microsomes; from tissue; host or cells: human liver microsomes
T3 sequence (P05177 1-516): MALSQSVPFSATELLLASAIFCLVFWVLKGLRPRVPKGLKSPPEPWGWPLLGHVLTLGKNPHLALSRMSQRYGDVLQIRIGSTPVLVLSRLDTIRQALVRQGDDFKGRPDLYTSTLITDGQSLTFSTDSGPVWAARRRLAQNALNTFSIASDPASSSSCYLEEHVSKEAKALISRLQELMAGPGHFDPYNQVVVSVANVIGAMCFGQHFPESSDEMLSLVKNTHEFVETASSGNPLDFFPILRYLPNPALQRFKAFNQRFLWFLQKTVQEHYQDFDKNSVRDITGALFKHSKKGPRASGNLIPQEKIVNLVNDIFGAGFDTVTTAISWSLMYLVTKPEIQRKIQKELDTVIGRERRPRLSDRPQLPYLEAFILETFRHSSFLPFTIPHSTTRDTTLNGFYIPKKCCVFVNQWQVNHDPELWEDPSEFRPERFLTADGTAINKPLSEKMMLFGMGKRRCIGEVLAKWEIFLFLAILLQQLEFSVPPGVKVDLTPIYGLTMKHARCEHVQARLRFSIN
Description: CYP450 isoform inhibition, recombinant enzymes, analysis by LCMS: CYP1A2. Here is the method: as §1, §2, §3, §4

Assay [5] deals with CYP2E1 (Homo sapiens, UniProt P05181). In words: CYP450 inhibition, specific substrate approach in human liver microsomes: CYP2E1. Also on record: using a specific substrate approach in human liver microsomes; from tissue; host or cells: human liver microsomes. The procedure:
CYP450 Isoform Inhibition Using a Specific Substrate Approach
The present study is a “Tier 2” screen to assess potential enzyme inhibition at a test compound concentration of 20 μM using a specific substrate approach in human liver microsomes.
The substrate specific enzyme inhibition study relies on the formation of a metabolite that is mediated by a specific CYP450 isoform using human liver microsomes. In the current study, the following reactions were monitored to assess interactions with specific CYP450 isoforms. A known inhibitor of each isoform was included in each assay as a positive control. The following IC50 values have been reported in the literature using equivalent assay conditions for each CYP450 isoform:
The reaction was initiated by the addition of an NADPH-regenerating system and was quenched by the addition of acetonitrile prior to determining the concentration (and apparent rate of formation) of the specific metabolite by LC/MS.
The IC50 was deemed to be the concentration at which there was a 50% reduction in the amount of metabolite formed, relative to the maximal extent of formation.
For orientation: Liver microsomes are vesicles of endoplasmic reticulum, rich in cytochrome P450 enzymes.

CYP2E1, sequence (P05181 whole entry, canonical isoform): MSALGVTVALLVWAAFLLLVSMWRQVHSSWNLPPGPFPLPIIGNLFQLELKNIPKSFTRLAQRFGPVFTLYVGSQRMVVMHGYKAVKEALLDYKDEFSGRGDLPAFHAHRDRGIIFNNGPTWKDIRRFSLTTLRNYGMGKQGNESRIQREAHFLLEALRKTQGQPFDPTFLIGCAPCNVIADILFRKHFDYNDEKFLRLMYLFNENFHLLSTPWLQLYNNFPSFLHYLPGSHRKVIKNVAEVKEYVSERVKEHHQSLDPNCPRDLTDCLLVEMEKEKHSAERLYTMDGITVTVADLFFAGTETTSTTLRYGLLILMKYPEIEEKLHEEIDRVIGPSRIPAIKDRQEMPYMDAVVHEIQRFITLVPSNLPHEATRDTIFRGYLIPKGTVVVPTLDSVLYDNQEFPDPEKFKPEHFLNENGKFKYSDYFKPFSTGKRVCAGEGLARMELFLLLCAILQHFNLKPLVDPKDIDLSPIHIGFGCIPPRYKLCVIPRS
T2 sequence (P11712 whole entry): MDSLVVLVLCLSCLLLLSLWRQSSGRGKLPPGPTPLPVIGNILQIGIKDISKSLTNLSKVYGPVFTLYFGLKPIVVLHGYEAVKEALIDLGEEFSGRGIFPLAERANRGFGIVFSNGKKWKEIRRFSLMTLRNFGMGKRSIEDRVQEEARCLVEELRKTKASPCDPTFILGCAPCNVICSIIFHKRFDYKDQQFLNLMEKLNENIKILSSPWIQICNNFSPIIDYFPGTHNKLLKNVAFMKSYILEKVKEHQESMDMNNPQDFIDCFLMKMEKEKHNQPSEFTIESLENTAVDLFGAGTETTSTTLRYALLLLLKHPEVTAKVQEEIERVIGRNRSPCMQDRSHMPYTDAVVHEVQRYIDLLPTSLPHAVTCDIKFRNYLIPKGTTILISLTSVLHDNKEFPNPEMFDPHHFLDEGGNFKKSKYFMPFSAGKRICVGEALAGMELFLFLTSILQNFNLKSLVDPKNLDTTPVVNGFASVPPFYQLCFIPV
CYP3A4, sequence (P08684 whole entry, canonical isoform): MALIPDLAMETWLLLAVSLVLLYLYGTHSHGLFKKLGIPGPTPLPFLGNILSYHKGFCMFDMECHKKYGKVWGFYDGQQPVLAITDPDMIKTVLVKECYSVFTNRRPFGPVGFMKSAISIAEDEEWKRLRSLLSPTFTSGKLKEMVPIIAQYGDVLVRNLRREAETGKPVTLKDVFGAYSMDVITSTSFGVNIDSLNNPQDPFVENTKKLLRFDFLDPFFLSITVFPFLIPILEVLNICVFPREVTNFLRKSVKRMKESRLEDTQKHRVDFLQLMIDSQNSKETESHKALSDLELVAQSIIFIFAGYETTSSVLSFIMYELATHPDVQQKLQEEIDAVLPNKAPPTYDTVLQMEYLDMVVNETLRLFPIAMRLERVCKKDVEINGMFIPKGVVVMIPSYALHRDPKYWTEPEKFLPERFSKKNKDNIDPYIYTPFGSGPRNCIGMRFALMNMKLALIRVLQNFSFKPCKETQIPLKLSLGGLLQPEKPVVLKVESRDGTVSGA

`CNCc1nc2c(O)c(Cl)cc(Cl)c2c(=O)n1C` [Compound F4161]: the IC50 in assay [1] was 13.8 µM; in assay [2], above 40 µM; in assay [3] it was above 40 µM; in assay [4] it was 25.7 µM.

Regarding `CCn1c(CN(C)C)nc2c(O)c(Cl)cc(Cl)c2c1=O.Cl` [Compound F4268], the IC50 in assay [5] is above 20 µM.
